What follows are compounds tested on Key Broadleaf Weed and Crop Species (assay: Post-emergent Test II herbicidal activity (Table 5)). Conditions: post-emergence, 336 h; ABUTH: velvetleaf (Abutilon theophrasti); 70 g ai/ha; post-emergent; 14 days after application; read-out: Visual Growth Reduction (%) 14 Days After Application ABUTH.
Assay type: in vivo
In short: (§1)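 Compounds, dissolved in 97:3 acetone/DMSO and diluted into an aqueous carrier containing crop oil concentrate and Triton X-155, are applied over the top of young plants at 187 L/ha. Injury is scored visually at 14 d, 0% meaning no effect and 100% complete kill.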
`COC(=O)c1nc(-c2ccc(Br)c(F)c2)cc(N)c1Cl` [Compound 115, methyl 4-amino-6-(4-bromo-3-fluorophenyl)-3-chloropicolinate] gave a pest or weed control at 70 g/ha of 85 to 94%.

Same assay, conditions: post-emergence, 336 h; ABUTH: velvetleaf (Abutilon theophrasti); 140 g ai/ha; post-emergent; 14 days after application; read-out: Visual Growth Reduction (%) 14 Days After Application ABUTH
Compound `COC(=O)c1nc(-c2ccc(Br)c(F)c2)cc(N)c1Cl` [Compound 115, methyl 4-amino-6-(4-bromo-3-fluorophenyl)-3-chloropicolinate] has a pest or weed control at 140 g/ha of 85 to 94%.

Same assay, conditions: post-emergence, 336 h; AMARE: redroot pigweed (Amaranthus retroflexus); 70 g ai/ha; post-emergent; 14 days after application; read-out: Visual Growth Reduction (%) 14 Days After Application AMARE
For `COC(=O)c1nc(-c2ccc(Br)c(F)c2)cc(N)c1Cl` [Compound 115, methyl 4-amino-6-(4-bromo-3-fluorophenyl)-3-chloropicolinate], the pest or weed control at 70 g/ha was 95 to 100%.

Same assay, conditions: post-emergence, 336 h; AMARE: redroot pigweed (Amaranthus retroflexus); 140 g ai/ha; post-emergent; 14 days after application; read-out: Visual Growth Reduction (%) 14 Days After Application AMARE
For `COC(=O)c1nc(-c2ccc(Br)c(F)c2)cc(N)c1Cl` [Compound 115, methyl 4-amino-6-(4-bromo-3-fluorophenyl)-3-chloropicolinate], the pest or weed control at 140 g/ha was 95 to 100%.

Same assay, conditions: post-emergence, 336 h; BRSNN: oilseed-rape, canola (Brassica napus); 70 g ai/ha; post-emergent; 14 days after application; read-out: Visual Growth Reduction (%) 14 Days After Application BRSNN
Compound `COC(=O)c1nc(-c2ccc(Br)c(F)c2)cc(N)c1Cl` [Compound 115, methyl 4-amino-6-(4-bromo-3-fluorophenyl)-3-chloropicolinate] has a pest or weed control at 70 g/ha of 60 to 74%.

Same assay, conditions: post-emergence, 336 h; BRSNN: oilseed-rape, canola (Brassica napus); 140 g ai/ha; post-emergent; 14 days after application; read-out: Visual Growth Reduction (%) 14 Days After Application BRSNN
With `COC(=O)c1nc(-c2ccc(Br)c(F)c2)cc(N)c1Cl` [Compound 115, methyl 4-amino-6-(4-bromo-3-fluorophenyl)-3-chloropicolinate] the pest or weed control at 140 g/ha was 75 to 84%.

Same assay, conditions: post-emergence, 336 h; CHEAL: lambsquarters (Chenopodium album); 70 g ai/ha; post-emergent; 14 days after application; read-out: Visual Growth Reduction (%) 14 Days After Application CHEAL
With `COC(=O)c1nc(-c2ccc(Br)c(F)c2)cc(N)c1Cl` [Compound 115, methyl 4-amino-6-(4-bromo-3-fluorophenyl)-3-chloropicolinate] the pest or weed control at 70 g/ha was 95 to 100%.

Same assay, conditions: post-emergence, 336 h; CHEAL: lambsquarters (Chenopodium album); 140 g ai/ha; post-emergent; 14 days after application; read-out: Visual Growth Reduction (%) 14 Days After Application CHEAL
Compound `COC(=O)c1nc(-c2ccc(Br)c(F)c2)cc(N)c1Cl` [Compound 115, methyl 4-amino-6-(4-bromo-3-fluorophenyl)-3-chloropicolinate] has a pest or weed control at 140 g/ha of 95 to 100%.

Same assay, conditions: post-emergence, 336 h; EPHHL: wild poinsettia (Euphorbia heterophylla); 70 g ai/ha; post-emergent; 14 days after application; read-out: Visual Growth Reduction (%) 14 Days After Application EPHHL
With `COC(=O)c1nc(-c2ccc(Br)c(F)c2)cc(N)c1Cl` [Compound 115, methyl 4-amino-6-(4-bromo-3-fluorophenyl)-3-chloropicolinate] the pest or weed control at 70 g/ha was 95 to 100%.

Same assay, conditions: post-emergence, 336 h; EPHHL: wild poinsettia (Euphorbia heterophylla); 140 g ai/ha; post-emergent; 14 days after application; read-out: Visual Growth Reduction (%) 14 Days After Application EPHHL
Compound `COC(=O)c1nc(-c2ccc(Br)c(F)c2)cc(N)c1Cl` [Compound 115, methyl 4-amino-6-(4-bromo-3-fluorophenyl)-3-chloropicolinate] has a pest or weed control at 140 g/ha of 95 to 100%.

Same assay, conditions: post-emergence, 336 h; HELAN: sunflower (Helianthus annuus); 70 g ai/ha; post-emergent; 14 days after application; read-out: Visual Growth Reduction (%) 14 Days After Application HELAN
Work on `COC(=O)c1nc(-c2ccc(Br)c(F)c2)cc(N)c1Cl` [Compound 115, methyl 4-amino-6-(4-bromo-3-fluorophenyl)-3-chloropicolinate] yielded a pest or weed control at 70 g/ha of 85 to 94%.

Same assay, conditions: post-emergence, 336 h; HELAN: sunflower (Helianthus annuus); 140 g ai/ha; post-emergent; 14 days after application; read-out: Visual Growth Reduction (%) 14 Days After Application HELAN
For `COC(=O)c1nc(-c2ccc(Br)c(F)c2)cc(N)c1Cl` [Compound 115, methyl 4-amino-6-(4-bromo-3-fluorophenyl)-3-chloropicolinate], the pest or weed control at 140 g/ha was 95 to 100%.

Same assay, conditions: post-emergence, 336 h; VIOTR: wild pansy (Viola tricolor); 70 g ai/ha; post-emergent; 14 days after application; read-out: Visual Growth Reduction (%) 14 Days After Application VIOTR
For `COC(=O)c1nc(-c2ccc(Br)c(F)c2)cc(N)c1Cl` [Compound 115, methyl 4-amino-6-(4-bromo-3-fluorophenyl)-3-chloropicolinate], the pest or weed control at 70 g/ha was 95 to 100%.

Same assay, conditions: post-emergence, 336 h; VIOTR: wild pansy (Viola tricolor); 140 g ai/ha; post-emergent; 14 days after application; read-out: Visual Growth Reduction (%) 14 Days After Application VIOTR
`COC(=O)c1nc(-c2ccc(Br)c(F)c2)cc(N)c1Cl` [Compound 115, methyl 4-amino-6-(4-bromo-3-fluorophenyl)-3-chloropicolinate] gave a pest or weed control at 140 g/ha of 95 to 100%.

Each compound was assayed on Key Grass and Sedge Weeds as well as Grass Crops (assay: Post-emergent Test II herbicidal activity (Table 6)). Conditions: Triticum aestivum, post-emergence, 336 h, TRZSS (wheat), application rate 70 g ai/ha, read-out: Visual Growth Reduction (%) 14 Days After Application, TRZSS.
Assay type: in vivo
In short: as §1
`COC(=O)c1nc(-c2ccc(Br)c(F)c2)cc(N)c1Cl` [Compound 115, methyl 4-amino-6-(4-bromo-3-fluorophenyl)-3-chloropicolinate] was tested, and the pest or weed control at 70 g/ha was 0 to 29%.

Same assay, conditions: Triticum aestivum, post-emergence, 336 h, TRZSS (wheat), application rate 140 g ai/ha, read-out: Visual Growth Reduction (%) 14 Days After Application, TRZSS
Work on `COC(=O)c1nc(-c2ccc(Br)c(F)c2)cc(N)c1Cl` [Compound 115, methyl 4-amino-6-(4-bromo-3-fluorophenyl)-3-chloropicolinate] yielded a pest or weed control at 140 g/ha of 0 to 29%.

Same assay, conditions: post-emergence, 336 h, CYPES: yellow nutsedge (Cyperus esculentus), application rate 70 g ai/ha, read-out: Visual Growth Reduction (%) 14 Days After Application, CYPES
`COC(=O)c1nc(-c2ccc(Br)c(F)c2)cc(N)c1Cl` [Compound 115, methyl 4-amino-6-(4-bromo-3-fluorophenyl)-3-chloropicolinate] showed a pest or weed control at 70 g/ha of 95 to 100%.

Same assay, conditions: post-emergence, 336 h, CYPES: yellow nutsedge (Cyperus esculentus), application rate 140 g ai/ha, read-out: Visual Growth Reduction (%) 14 Days After Application, CYPES
Work on `COC(=O)c1nc(-c2ccc(Br)c(F)c2)cc(N)c1Cl` [Compound 115, methyl 4-amino-6-(4-bromo-3-fluorophenyl)-3-chloropicolinate] yielded a pest or weed control at 140 g/ha of 95 to 100%.

Same assay, conditions: post-emergence, 336 h, DIGSA: crabgrass (Digitaria sanguinalis), application rate 70 g ai/ha, read-out: Visual Growth Reduction (%) 14 Days After Application, DIGSA
In the case of `COC(=O)c1nc(-c2ccc(Br)c(F)c2)cc(N)c1Cl` [Compound 115, methyl 4-amino-6-(4-bromo-3-fluorophenyl)-3-chloropicolinate], the pest or weed control at 70 g/ha is reported as 85 to 94%.

Same assay, conditions: post-emergence, 336 h, DIGSA: crabgrass (Digitaria sanguinalis), application rate 140 g ai/ha, read-out: Visual Growth Reduction (%) 14 Days After Application, DIGSA
With `COC(=O)c1nc(-c2ccc(Br)c(F)c2)cc(N)c1Cl` [Compound 115, methyl 4-amino-6-(4-bromo-3-fluorophenyl)-3-chloropicolinate] the pest or weed control at 140 g/ha was 85 to 94%.

Same assay, conditions: post-emergence, 336 h, ECHCG: barnyardgrass (Echinochloa crus-galli), application rate 70 g ai/ha, read-out: Visual Growth Reduction (%) 14 Days After Application, ECHCG
With `COC(=O)c1nc(-c2ccc(Br)c(F)c2)cc(N)c1Cl` [Compound 115, methyl 4-amino-6-(4-bromo-3-fluorophenyl)-3-chloropicolinate] the pest or weed control at 70 g/ha was 85 to 94%.

Same assay, conditions: post-emergence, 336 h, ECHCG: barnyardgrass (Echinochloa crus-galli), application rate 140 g ai/ha, read-out: Visual Growth Reduction (%) 14 Days After Application, ECHCG
`COC(=O)c1nc(-c2ccc(Br)c(F)c2)cc(N)c1Cl` [Compound 115, methyl 4-amino-6-(4-bromo-3-fluorophenyl)-3-chloropicolinate] showed a pest or weed control at 140 g/ha of 85 to 94%.

Same assay, conditions: post-emergence, 336 h, ORYSA: rice (Oryza sativa), application rate 70 g ai/ha, read-out: Visual Growth Reduction (%) 14 Days After Application, ORYSA
`COC(=O)c1nc(-c2ccc(Br)c(F)c2)cc(N)c1Cl` [Compound 115, methyl 4-amino-6-(4-bromo-3-fluorophenyl)-3-chloropicolinate] was tested, and the pest or weed control at 70 g/ha was 0 to 29%.

Same assay, conditions: post-emergence, 336 h, ORYSA: rice (Oryza sativa), application rate 140 g ai/ha, read-out: Visual Growth Reduction (%) 14 Days After Application, ORYSA
Work on `COC(=O)c1nc(-c2ccc(Br)c(F)c2)cc(N)c1Cl` [Compound 115, methyl 4-amino-6-(4-bromo-3-fluorophenyl)-3-chloropicolinate] yielded a pest or weed control at 140 g/ha of 0 to 29%.

Same assay, conditions: post-emergence, 336 h, SETFA: giant foxtail (Setaria faberi), application rate 70 g ai/ha, read-out: Visual Growth Reduction (%) 14 Days After Application, SETFA
With `COC(=O)c1nc(-c2ccc(Br)c(F)c2)cc(N)c1Cl` [Compound 115, methyl 4-amino-6-(4-bromo-3-fluorophenyl)-3-chloropicolinate] the pest or weed control at 70 g/ha was 0 to 29%.

Same assay, conditions: post-emergence, 336 h, SETFA: giant foxtail (Setaria faberi), application rate 140 g ai/ha, read-out: Visual Growth Reduction (%) 14 Days After Application, SETFA
In the case of `COC(=O)c1nc(-c2ccc(Br)c(F)c2)cc(N)c1Cl` [Compound 115, methyl 4-amino-6-(4-bromo-3-fluorophenyl)-3-chloropicolinate], the pest or weed control at 140 g/ha is reported as 0 to 29%.

Same assay, conditions: post-emergence, 336 h, SORVU: grain sorghum (Sorghum vulgare), application rate 70 g ai/ha, read-out: Visual Growth Reduction (%) 14 Days After Application, SORVU
`COC(=O)c1nc(-c2ccc(Br)c(F)c2)cc(N)c1Cl` [Compound 115, methyl 4-amino-6-(4-bromo-3-fluorophenyl)-3-chloropicolinate] showed a pest or weed control at 70 g/ha of 85 to 94%.

Same assay, conditions: post-emergence, 336 h, SORVU: grain sorghum (Sorghum vulgare), application rate 140 g ai/ha, read-out: Visual Growth Reduction (%) 14 Days After Application, SORVU
Work on `COC(=O)c1nc(-c2ccc(Br)c(F)c2)cc(N)c1Cl` [Compound 115, methyl 4-amino-6-(4-bromo-3-fluorophenyl)-3-chloropicolinate] yielded a pest or weed control at 140 g/ha of 95 to 100%.

Same assay, conditions: post-emergence, 336 h, ZEAMX: maize, corn (Zea mays), application rate 70 g ai/ha, read-out: Visual Growth Reduction (%) 14 Days After Application, ZEAMX
`COC(=O)c1nc(-c2ccc(Br)c(F)c2)cc(N)c1Cl` [Compound 115, methyl 4-amino-6-(4-bromo-3-fluorophenyl)-3-chloropicolinate] gave a pest or weed control at 70 g/ha of 0 to 29%.

Same assay, conditions: post-emergence, 336 h, ZEAMX: maize, corn (Zea mays), application rate 140 g ai/ha, read-out: Visual Growth Reduction (%) 14 Days After Application, ZEAMX
`COC(=O)c1nc(-c2ccc(Br)c(F)c2)cc(N)c1Cl` [Compound 115, methyl 4-amino-6-(4-bromo-3-fluorophenyl)-3-chloropicolinate] gave a pest or weed control at 140 g/ha of 0 to 29%.

Source: patent US9113629B2, “4-amino-6-(4-substituted-phenyl)-picolinates and 6-amino-2-(4-substituted-phenyl)-pyrimidine-4-carboxylates and their use as herbicides” (DOW AGROSCIENCES LLC, priority 2013, dated 2015)
